Results taken from US6844312B2, “Production of tyrosine hydroxylase positive neurons” (Stem Cell Therapeutics Inc., priority 2001, dated 2005).

Tested on: neural stem cells
Assay: Effect of PACAP in lieu of forskolin in the TH cocktail on neural stem cell culture
Format: cell-based, mice
Conditions: 2 nM PACAP versus 1 μM forskolin in the TH cocktail
Procedure: A control experiments using 1 μM forskolin and no PACAP was performed in parallel as a comparison.

pituitary adenylate cyclase activating polypeptide [PACAP]
effectiveness in the production of TH positive neurons: more effective than forskolin
